Assay results published in patent US10610520B2, “Heterocyclic compound” (Takeda Pharmaceutical Company Limited, priority 2016, dated 2020).

Biological target: T1, His-hMAGL (recombinant polyhistidine tagged human MAGL protein) (Homo sapiens, UniProt Q99685)
T1 construct: made in house; host or cells: E. coli BL21(DE3)
T1 sequence (Q99685 1-303): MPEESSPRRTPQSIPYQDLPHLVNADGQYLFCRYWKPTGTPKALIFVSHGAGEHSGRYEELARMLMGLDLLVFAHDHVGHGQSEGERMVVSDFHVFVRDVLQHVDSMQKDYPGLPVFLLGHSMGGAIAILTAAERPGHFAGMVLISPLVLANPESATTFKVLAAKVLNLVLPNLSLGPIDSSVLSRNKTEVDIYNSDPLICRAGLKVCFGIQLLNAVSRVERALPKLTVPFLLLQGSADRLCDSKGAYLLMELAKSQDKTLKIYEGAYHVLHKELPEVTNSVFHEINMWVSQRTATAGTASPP
Assay: Measurement of MAGL inhibitory activity (arachidonic acid production from 2-arachidonylglycerol, RapidFire-mass spectrometry)
Assay type: biochemical
Details: MAGL inhibitory rate, test compound 10 μM, 60 min preincubation, 2-arachidonylglycerol substrate
Method in brief: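 Arachidonic acid formed was quantified by online solid-phase extraction and triple-quadrupole MS in negative SRM mode against a d8 internal standard. Reaction: recombinant His-hMAGL (7.5 ng/mL, pH 7.5 Tris buffer with Triton X-100 and BSA) plus 2-AG (5 μL of 150 μM stock) for 10 min at room temperature, quenched with 2% formic acid. Percent inhibition corrected for enzyme-free background.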

inhibition at 10 µM [%]	SMILES
100	O=C1CCC2(CN(C(=O)c3sc4cc(-c5cccc(C6CC6)c5)ccc4c3Cl)C2)N1 [Example 218, 2-((3-chloro-6-(3-cyclopropylphenyl)-1-benzothiophen-2-yl)carbonyl)-2,5-diazaspiro[3.4]octan-6-one]
101	O=C1NC2(CO1)CN(C(=O)c1sc3cc(Cl)cc(Cl)c3c1Cl)C2 [Example 308, 2-((3,4,6-trichloro-1-benzothiophen-2-yl)carbonyl)-7-oxa-2,5-diazaspiro[3.4]octan-6-one]
100	O=C1CCC2(CN(C(=O)c3sc4cc(-c5cccc(F)c5Cl)ccc4c3Cl)C2)N1 [Example 220, 2-((3-chloro-6-(2-chloro-3-fluorophenyl)-1-benzothiophen-2-yl)carbonyl)-2,5-diazaspiro[3.4]octan-6-one]
100	O=C1COCC2(CCN(C(=O)c3sc4cc(OC(F)(F)F)ccc4c3Cl)C2)N1 (stereo not shown) [Example 273, 2-((3-chloro-6-(trifluoromethoxy)-1-benzothiophen-2-yl)carbonyl)-9-oxa-2,6-diazaspiro[4.5]decan-7-one]
99	O=C1COCC2(CCN(C(=O)N3CCC(COc4ccc(F)cc4Cl)CC3)C2)N1 (stereo not shown) [Example 276, 2-((4-((2-chloro-4-fluorophenoxy)methyl)piperidin-1-yl)carbonyl)-9-oxa-2,6-diazaspiro[4.5]decan-7-one]
100	O=C1NC2(CCN(C(=O)c3sc4c(F)c(OC(F)(F)F)ccc4c3Cl)C2)CO1 (stereo not shown) [Example 338, 7-((3-chloro-7-fluoro-6-(trifluoromethoxy)-1-benzothiophen-2-yl)carbonyl)-3-oxa-1,7-diazaspiro[4.4]nonan-2-one]
102	O=C1NC2(CO1)CN(C(=O)c1sc3cccc(C(F)(F)F)c3c1Cl)C2 [Example 268, 2-((3-chloro-4-(trifluoromethyl)-1-benzothiophen-2-yl)carbonyl)-7-oxa-2,5-diazaspiro[3.4]octan-6-one]
99	O=C1CCC2(CN(C(=O)c3sc4cc(-c5cc(F)cc(F)c5)ccc4c3Cl)C2)N1 [Example 214, 2-((3-chloro-6-(3,5-difluorophenyl)-1-benzothiophen-2-yl)carbonyl)-2,5-diazaspiro[3.4]octan-6-one]
101	O=C1NC2(CO1)CN(C(=O)c1sc3cc(F)cc(OC(F)(F)F)c3c1Cl)C2 [Example 314, 2-((3-chloro-6-fluoro-4-(trifluoromethoxy)-1-benzothiophen-2-yl)caarbonyl)-7-oxa-2,5-diazaspiro[3.4]octan-6-one]
101	COc1cc(F)c2c(Cl)c(C(=O)N3CC4(COC(=O)N4)C3)sc2c1 [Example 284, 2-((3-chloro-4-fluoro-6-methoxy-1-benzothiophen-2-yl)carbonyl)-7-oxa-2,5-diazaspiro[3.4]octan-6-one]
100	O=C1NC2(CO1)CN(C(=O)c1sc3cc(-c4ccccc4F)ccc3c1-c1ccccc1F)C2 [Example 346, 2-((3,6-bis(2-fluorophenyl)-1-benzothiophen-2-yl)carbonyl)-7-oxa-2,5-diazaspiro[3.4]octan-6-one]
100	O=C1NC2(CO1)CN(C(=O)c1sc3cc(Br)ccc3c1Cl)C2 [Example 307, 2-((6-bromo-3-chloro-1-benzothiophen-2-yl)carbonyl)-7-oxa-2,5-diazaspiro[3.4]octan-6-one]

Continued, compound first:

SMILES	inhibition at 10 µM [%]
O=C1CCC2(CN(C(=O)N3CC(COc4ccc(Br)cc4F)C3)C2)N1 [Example 16, 2-((3-((4-bromo-2-fluorophenoxy)methyl)azetidin-1-yl)carbonyl)-2,5-diazaspiro[3.4]octan-6-one]	104
O=C1CCC2(CN(C(=O)c3sc(-c4ccccc4C(F)(F)F)cc3Cl)C2)N1 [Example 180, 2-((3-chloro-5-(2-(trifluoromethyl)phenyl)-2-thienyl)carbonyl)-2,5-diazaspiro[3.4]octan-6-one]	87
O=C1CCC2(CN(C(=O)c3ccc(-c4ccc(F)c(F)c4F)cc3)C2)N1 [Example 69, 2-((2′,3′,4′-trifluorobiphenyl-4-yl)carbonyl)-2,5-diazaspiro[3.4]octan-6-one]	97
O=C1CCC2(CN(C(=O)c3ccc(C(F)(F)c4ccccc4)cc3)C2)N1 [Example 28, 2-(4-(difluoro(phenyl)methyl)benzoyl)-2,5-diazaspiro[3.4]octan-6-one]	97
O=C1CCC2(CN(C(=O)N3CCC(Cc4cccc(Cl)c4)CC3)C2)N1 [Example 100, 2-((4-(3-chlorobenzy)lpiperidin-1-yl)carbonyl)-2,5-diazaspiro[3.4]octan-6-one]	102
O=C1CCC2(CN(C(=O)N3CCC(C(c4ccccc4)c4ccccc4)CC3)C2)N1 [Example 112, 2-((4-(diphenylmethyl)piperidin-1-yl)carbonyl)-2,5-diazaspiro[3.4]octan-6-one]	101
O=C1CCC2(CN(C(=O)c3ccc(OCc4ccccc4)cc3)C2)N1 [Example 6, 2-(4-(benzyloxy)benzoyl)-2,5-diazaspiro[3.4]octan-6-one]	87
Cc1c(F)cccc1-c1ccc2c(Cl)c(C(=O)N3CC4(CCC(=O)N4)C3)sc2c1 [Example 204, 2-((3-chloro-6-(3-fluoro-2-methylphenyl)-1-benzothiophen-2-yl)carbonyl)-2,5-diazaspiro[3.4]octan-6-one]	100
Cc1ccc(Cl)c(-c2ccc(C(=O)N3CC4(CCC(=O)N4)C3)cc2)c1 [Example 81, 2-((2′-chloro-5′-methylbiphenyl-4-yl)carbonyl)-2,5-diazaspiro[3.4]octan-6-one]	94
O=C1CCC2(CN(C(=O)N3CCC(Cc4ccccc4Cl)CC3)C2)N1 [Example 101, 2-((4-(2-chlorobenzyl)piperidin-1-yl)carbonyl)-2,5-diazaspiro[3.4]octan-6-one]	99
O=C1CCC2(CN(C(=O)c3ccc(-c4ccccc4)s3)C2)N1 [Example 126, 2-((5-phenyl-2-thienyl)carbonyl)-2,5-diazaspiro[3.4]octan-6-one]	85
Cc1ccc(OCC2CN(C(=O)N3CC4(CCC(=O)N4)C3)C2)c(Cl)c1 [Example 21, 2-((3-((2-chloro-4-methylphenoxy)methyl)azetidin-1-yl)carbonyl)-2,5-diazaspiro[3.4]octan-6-one]	102
O=C1CCC2(CN(C(=O)c3ccc(-c4ccc5c(c4)OCC5)cc3)C2)N1 [Example 74, 2-(4-(2,3-dihydro-1-benzofuran-6-yl)benzoyl)-2,5-diazaspiro[3.4]octan-6-one]	95
O=C1CCC2(CN(C(=O)c3sc4cc(-c5ccc(F)cc5F)ccc4c3Cl)C2)N1 [Example 39, 2-((3-chloro-6-(2,4-difluorophenyl)-1-benzothiophen-2-yl)carbonyl)-2,5-diazaspiro[3.4]octan-6-one]	101
O=C1CCC2(CN(C(=O)c3cc4cccc(Br)c4s3)C2)N1 [Example 146, 2-((7-bromo-1-benzothiophen-2-yl)carbonyl)-2,5-diazaspiro[3.4]octan-6-one]	90
O=C1CCC2(CN(C(=O)c3ccc(-c4ccc5c(c4)CCC5)cc3)C2)N1 [Example 57, 2-(4-(2,3-dihydro-1H-inden-5-yl)benzoyl)-2,5-diazaspiro[3.4]octan-6-one]	99
